Literature values, collected in patent US20250000794A1, “IMPROVED DRUG PROCESSING METHODS TO INCREASE DRUG LOADING” (BOARD OF REGENTS, THE UNIVERSITY OF TEXAS SYSTEM, priority 2021, published 2025).

Conditions: water

SMILES: NCCCC[C@H](N)C(=O)O [L-lysine]
- Solubility (g/100 mL) Room Temperature: 150 g/100 mL
